Measured values reported in patent US20060241174A1, “Vitamin E tocotrienols inhibition of intracellularly obligate pathogen Chlamydia and methods of use” (priority 2005, published 2006).

Test system: C. trachomatis SVK
Assay: Flow cytometry on Chlamydia-infected human B-lymphocytes (JY) treated with delta tocotrienol
Type: cell-based, Chlamydia trachomatis
Protocol: FIG. 5 illustrates flow cytometry on Chlamydia-infected human B-lymphocytes treated with delta tocotrienol. Human B-lymphocyte (JY) cells were treated with a 30 μmol/L concentration of delta tocotrienol in culture for 4 hours, infected with C. trachomatis SVK for 24-72 hours. Immunofluorescent Chlamydia-positive cells were detected by flow cytometry.
Chlamydial Strains: Stocks of C. trachomatis serovar K/VR887 were grown in J774A.1 cells without centrifuge assistance. Infected cells were lysed, this stock aliquoted and frozen down in SPG freeze medium (75.0 g sucrose, 0.52 g potassium phosphate, 1.22 g sodium phosphate dibasic, 0.72 g glutamic acid, diluted in […] ddH2O). These aliquots were stored in liquid N2 or at −80° C., and later thawed for use to infect monolayers.
Cell Lines Used: Mouse macrophages (J774A.1), human mammary tumor cells (MCF-7), and human epithelial cells (Hep-2), were obtained from the American Type Culture collection. Human mammary tumor cells (TMX2-28) were a kind gift from Dr. Arcaro, and human B-lymphocytes (JY) were a kind gift from Dr. Eric Martz. All cell lines were maintained in Richter's improved MEM insulin (IMEMZO, Irvine Scientific, Santa Ana, Calif.) with 5% fetal bovine serum (FBS, Atlanta Biologicals, Norcross, Ga.). Cells were grown to 80% confluence on 12 mm coverslips in 12 well plates (Becton Dickinson Labware, Franklin Lakes, N.J.). A dilution of 1:125 or 1:200 of the C. trachomatis serovar K stock was made using the standard complete cycloheximide overlay media (Bio-Whittaker, Walkersville, Md.) containing 10% FBS, and 1× L-glutamine (CCOM). This was layered onto the coverslip containing monolayers, and incubated for 24-48 hours at 37° C. with 5% CO2. Coverslips with the cell monolayers were harvested, rinsed with phosphate buffered saline (PBS), fixed with 70% cold methanol, stored and subsequently immunostained. […]
Immunostaining: Briefly, infected cells were immunostained with a 1:2 dilution of guinea pig anti-chlamydia polyclonal antibody (Biomeda, Foster City, Calif.), or a 1:125 dilution of rabbit anti-chlamydia EB whole serum for 1 hour at 37° C. Following PBS rinses X3, the bound antibodies were detected using a 1:100 dilution of FITC-conjugated donkey anti-guinea pig or a 1:125 dilution of TRITC-conjugated goat anti-rabbit secondary antibodies (Jackson ImmunoResearch, West Grove, Pa.). […] For photography, slides were assessed in the Massachusetts Central Microscopy Facility using a Zeiss LSM 510 Meta Confocal System and 630× magnification. […]
Samples were analyzed for carriage of Chlamydia-infected cells by FACScan (Becton, Dickinson and Company, Franklin Lakes, N.J.).

## delta tocotrienol
At 36 hours, 30 μmol/L, flow cytometry
  maximum chlamydial inhibition in JY cells: 2.6 fold
Following one single tocotrienol treatment
  persistence of effect: at least 3 days
One single tocotrienol treatment
  period in which chlamydial inhibition was effective: ≤ 1 days
Over an infection period of 72 hours, 30 μmol/L, flow cytometry
  chlamydial inhibition in JY cells: at least 2 fold
